According to patent US8617563B2, “Antichlamydial agents” (Duke University, priority 2011, dated 2013):
Entries after “also recorded” stand apart in the source; their conditions may differ. Where no end group is shown, it is not given here.

Tests used:
C. trachomatis LGV-L2 = experiment: Generation of infectious particles (IFU) and inclusion growth in infected HeLa cells; format: cell-based
Description: (§1) FIG. 9 depicts (A) CPAF inhibitory peptides block the generation of Chlamydia infectious particles. L2-infected HeLa cells were treated at 12 hpi with increasing concentration of peptides. EBs were harvested at 30 hpi and inclusion-forming units (IFU) were quantified on fresh cell monolayers. (B-D) CPAF activity is required to maintain inclusion integrity. The integrity of the inclusion was determined by assessing the immunolocalization of the inclusion membrane marker IncA (red) and Chlamydia (green) (B) and by transmission electron microscopy (C). […] (D) The percentage of vimentin-positive inclusions was determined by IF in infected cells treated with SEQ ID NO:7 and SEQ ID NO:11 (12 hpi) peptides at 24 hpi. (E) Activation of inflammatory cytokines upon inhibition of CPAF activity. Levels of IL-8 supernatants from Chlamydia infected cells treated with peptides as in (B-D) were determined at 24 hpi by ELISA.
Cells were infected with an MOI of 1 and treated with CPAF inhibitor (SEQ ID NO:7) or control (SEQ ID NO:11) peptides at 12 hpi, fixed at 24 hpi and analyzed by IF with anti-L2 polyclonal antisera. Inclusion size was determined by measuring the inclusion diameter in μm by confocal microscopy of 50 infected cells. The number of cells with fragmented inclusions was determined by counting the number of infected cells out of 50 with more than one inclusion. […]

IL-8 secretion = IL-8 secretion by infected HeLa cells (ELISA); format: cell-based, human; settings: peptide 12.5 μM at 12 hpi, measured 24 hpi
Description: as §1
Next, the mechanism underlying the block in chlamydial replication was assessed by performing microscopy analyses of Chlamydia-infected cells treated with an inhibitor of CPAF (SEQ ID NO:7). […] IL-8 secretion into the media was determined with a Human IL-8 ELISA kit (available from BioLegend).

CPAF = CPAF (Chlamydia trachomatis serovar D, UniProt O84866); format: cell-based, C. trachomatis; design: endogenous in cells; host or cells: HeLa cells infected with C. trachomatis LGV-L2 434/Bu (the bacteria make the protein and secrete it into the host cytosol); settings: L2-infected HeLa cells, peptide at 12 hpi, harvested 30 hpi; 2-10 μM for vimentin
Sequence of CPAF (O84866 276-601): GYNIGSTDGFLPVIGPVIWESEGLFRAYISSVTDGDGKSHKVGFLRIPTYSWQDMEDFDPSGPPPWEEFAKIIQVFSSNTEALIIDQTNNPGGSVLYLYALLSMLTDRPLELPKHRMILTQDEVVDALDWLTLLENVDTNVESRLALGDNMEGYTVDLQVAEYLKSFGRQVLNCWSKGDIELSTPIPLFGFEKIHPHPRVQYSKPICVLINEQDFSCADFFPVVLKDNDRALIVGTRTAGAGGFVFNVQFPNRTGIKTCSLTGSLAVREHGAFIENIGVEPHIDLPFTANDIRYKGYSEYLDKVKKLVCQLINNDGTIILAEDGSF
Sequence of CPAF (O84866 24-234): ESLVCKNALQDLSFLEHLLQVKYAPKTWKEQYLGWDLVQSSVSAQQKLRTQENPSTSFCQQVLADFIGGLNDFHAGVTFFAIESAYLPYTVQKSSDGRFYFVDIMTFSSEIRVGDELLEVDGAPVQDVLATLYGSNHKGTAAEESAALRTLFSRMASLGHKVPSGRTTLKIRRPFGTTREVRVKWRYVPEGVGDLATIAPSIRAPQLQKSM
Description: Uninfected and HeLa cells pre-infected with L2 for 30 hrs were treated with inhibitory peptides and infected with EBs for 10 min Tarp translocation was indirectly visualized with an anti-phosphotyrosine antibody (A) and quantified by counting 50 separate cells (B). The stability of newly translocated Tarp was assessed by infecting cells as in (A) but with S^35-labeled EBs, followed by sequential immunoprecipitation of Tarp and MOMP and Phosphoimager analysis of precipitated material (C (I-IV)). […] IC50 values were determined by assessing CPAF cleavage of an Abz-tagged CPAF substrate (SEQ ID NO:9) by HPLC. Assays were performed the presence of increasing amount of inhibitors. […] Extracellular bacteria were determined. […] The number of internalized EBs was quantified per cell (H). […]
Rabbits were immunized with recombinant GST fusions to Ct005, IncC, IncD, Tarp, and hexa-histidine-tagged CPAF produced in E. coli BL-21 (available from Stratagene) and purified by affinity chromatography. […] To assess CPAF cleavage of membrane proteins and EB proteins, purified membranes and soluble EB protein lysate were incubated with 6× his-CPAF at 37° C., and resulting product analyzed by immunoblot. […]
To establish if CPAF was inhibited by SEQ ID NO:7 during infection, vimentin cleavage was assessed in C. trachomatis LGV-L2 434-infected HeLa cells after treatment with a range of concentrations (2-10 μM).

SLFYSPMVPHFWAELRNHYATSGLKRRRRRRRRR-NH2 [SEQ ID NO:7]
Yields of EBs (IFU) (C. trachomatis LGV-L2; L2-infected HeLa, peptide at 12 hpi, EBs harvested 30 hpi): significantly lowered yields of EBs | Inclusion growth (C. trachomatis LGV-L2; MOI 1, peptide at 12 hpi, fixed 24 hpi): stunted inclusion growth | IL-8 secretion (IL-8 secretion): increased IL-8 secretion | Inhibition of CPAF-mediated cleavage of vimentin and Puma in infected cells (CPAF): markedly inhibited; also recorded: loss of vimentin processing; also recorded: Vimentin and Puma cleavage was inhibited
